Reference: patent US20140113958A1, “HCV Combination Therapy” (priority 2011, published 2014)

Settings: compared with interferon alpha-2b

With “5′-^mCs^ocsAs^otstsGs^oTs^ocsas^mCs^oas^mCs^ots^mCs^omC^o-3′ (CCATTGTCACACTCC; all phosphorothioate, sugars by position and methylation of C not given here; further chemistry not fully specified) [miravirsen]” the therapeutic index was “at least an order of magnitude greater than interferon alpha-2b”.
